Results: article PMC8302244 (CPT: Pharmacometrics & Systems Pharmacology, 2021)

Legend:
CYP3A4 mRNA = conditions: primary human hepatocytes, up to 300 μM; ref unpublished data on file; cited from earlier work
[1] = cited from earlier work
[2] = Semimechanistic population PK model
[3] = Predicted individual exposure metrics
[4] = tested on: human cell lines derived from NC, SCLC, CRPC, TNBC, ER+BC and GIST; conditions: cited from earlier work
[5] = final model Run 32, power estimate of covariate effect
[6] = Besylate substudy—80 mg q.d., W1D1
[7] = Besylate substudy—80 mg q.d., W3D4

## COc1ccc2c(c1)C(c1ccc(Cl)cc1)=N[C@@H](CC(N)=O)c1nnc(C)n1-2 [GSK3529246]
CYP3A4 mRNA
  donors with concentration‐dependent increase in CYP3A4 mRNA: one donor
[1]
  free fraction in plasma: approximately 0.2
[2]; final model Run 32
  GSK3529246 central volume of distribution mV1/F: 62.1 L
  GSK3529246 clearance mCL/F: 12.8 L/h
  GSK3529246 transit rate mka: 11.5 h⁻¹
[2]; [5]
  AST effect on mCL/F: −0.194
  Weight effect on V1/F and mV1/F: 0.717
[2]; final model Run 32, variance
  IIV on GSK3529246 transit rate ωmka2: 0.488
[3]; [6]
  AUC0–24 Mean: 3110.0 ng/mL
  Cmax Mean: 316.0 ng/mL
  Cmin Mean: 34.7 ng/mL
[3]; [7]
  AUC0–24 Mean: 5890.0 ng/mL
  Cmax Mean: 469.0 ng/mL
  Cmin Mean: 89.6 ng/mL
[3]; Part 1—40 mg b.i.d., W1D1
  AUC0–24 Mean: 1860.0 ng/mL
  Cmax Mean: 222.0 ng/mL
  Cmin Mean: 94.5 ng/mL
[3]; Part 1—40 mg b.i.d., W3D4
  AUC0–24 Mean: 5810.0 ng/mL
  Cmax Mean: 365.0 ng/mL
  Cmin Mean: 128.0 ng/mL
[3]; Part 1—60 mg q.d., W1D1
  AUC0–24 Mean: 2640.0 ng/mL
  Cmax Mean: 296.0 ng/mL
  Cmin Mean: 21.3 ng/mL
[3]; Part 1—60 mg q.d., W3D4
  AUC0–24 Mean: 4240.0 ng/mL
  Cmax Mean: 379.0 ng/mL
  Cmin Mean: 57.7 ng/mL
[3]; Part 1—80 mg q.d., W1D1
  AUC0–24 Mean: 3230.0 ng/mL
  Cmax Mean: 355.0 ng/mL
  Cmin Mean: 65.8 ng/mL
[3]; Part 1—80 mg q.d., W3D4
  AUC0–24 Mean: 4730.0 ng/mL
  Cmax Mean: 448.0 ng/mL
  Cmin Mean: 66.1 ng/mL
[3]; Part 1—100 mg q.d., W1D1
  AUC0–24 Mean: 3910.0 ng/mL
  Cmax Mean: 383.0 ng/mL
  Cmin Mean: 46.8 ng/mL
[3]; Part 1—100 mg q.d., W3D4
  AUC0–24 Mean: 6970.0 ng/mL
  Cmax Mean: 567.0 ng/mL
  Cmin Mean: 120.0 ng/mL
[3]; Part 2—75 mg q.d., W1D1
  AUC0–24 Mean: 2720.0 ng/mL
  Cmax Mean: 325.0 ng/mL
  Cmin Mean: 57.5 ng/mL
[3]; Part 2—75 mg q.d., W3D4
  AUC0–24 Mean: 5010.0 ng/mL
  Cmax Mean: 431.0 ng/mL
  Cmin Mean: 82.7 ng/mL

## CCNC(=O)C[C@@H]1N=C(c2ccc(Cl)cc2)c2cc(OC)ccc2-n2c(C)nnc21 [Molibresib]
[4]
  proliferation of human cancer cell lines: inhibits the proliferation
